In ChEMBL document CHEMBL2073968, “Multidrug resistance protein 4 (MRP4/ABCC4) mediates efflux of bimane-glutathione” (Int J Biochem Cell Biol, 2004) one finds Activity, activity and IC50 data, which are given here for seven compounds.

In data set [1] the target is T1, ATP-binding cassette sub-family C member 4 (Homo sapiens, UniProt O15439).
T1 sequence (O15439 whole entry): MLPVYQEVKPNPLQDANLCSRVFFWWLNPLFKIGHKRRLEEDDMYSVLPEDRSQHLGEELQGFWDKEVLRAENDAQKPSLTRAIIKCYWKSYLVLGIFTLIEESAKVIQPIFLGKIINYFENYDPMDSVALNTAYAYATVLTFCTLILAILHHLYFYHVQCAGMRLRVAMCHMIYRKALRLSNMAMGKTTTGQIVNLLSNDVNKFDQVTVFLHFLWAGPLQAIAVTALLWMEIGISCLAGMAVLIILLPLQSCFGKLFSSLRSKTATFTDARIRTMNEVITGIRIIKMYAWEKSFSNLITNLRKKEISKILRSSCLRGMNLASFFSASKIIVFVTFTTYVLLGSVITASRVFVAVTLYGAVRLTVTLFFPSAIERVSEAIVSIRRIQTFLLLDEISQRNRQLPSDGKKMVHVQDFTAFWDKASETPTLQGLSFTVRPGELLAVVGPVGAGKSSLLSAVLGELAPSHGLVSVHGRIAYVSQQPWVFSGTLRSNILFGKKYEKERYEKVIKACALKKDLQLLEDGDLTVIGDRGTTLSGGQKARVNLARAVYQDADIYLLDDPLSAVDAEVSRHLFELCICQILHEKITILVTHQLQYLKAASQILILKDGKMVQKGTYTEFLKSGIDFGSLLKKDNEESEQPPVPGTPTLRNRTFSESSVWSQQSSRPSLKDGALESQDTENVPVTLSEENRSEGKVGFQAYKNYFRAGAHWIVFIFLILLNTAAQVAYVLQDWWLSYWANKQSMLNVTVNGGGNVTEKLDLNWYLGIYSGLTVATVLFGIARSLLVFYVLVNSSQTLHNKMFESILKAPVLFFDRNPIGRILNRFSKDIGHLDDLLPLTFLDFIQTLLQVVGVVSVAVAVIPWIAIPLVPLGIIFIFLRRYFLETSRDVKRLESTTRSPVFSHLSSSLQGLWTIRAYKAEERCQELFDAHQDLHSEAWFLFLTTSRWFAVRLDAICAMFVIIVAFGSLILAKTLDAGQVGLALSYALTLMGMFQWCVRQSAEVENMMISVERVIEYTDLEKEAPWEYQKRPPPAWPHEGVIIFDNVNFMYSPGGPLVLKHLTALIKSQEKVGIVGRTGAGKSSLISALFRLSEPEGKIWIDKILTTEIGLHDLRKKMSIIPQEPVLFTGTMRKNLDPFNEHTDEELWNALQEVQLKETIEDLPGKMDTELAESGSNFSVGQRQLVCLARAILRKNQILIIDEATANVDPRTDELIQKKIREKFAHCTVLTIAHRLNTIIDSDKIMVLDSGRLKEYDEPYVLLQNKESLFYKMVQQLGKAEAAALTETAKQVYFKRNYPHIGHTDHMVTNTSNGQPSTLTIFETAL
As to the kind of experiment: TP_TRANSPORTER: inhibition of bimane-GS efflux in the presence of 1-chloro-2,4-dinitrobenzen(2,4-dinitrophenyl-glutathione) at a concentration of 100uM in MRP4-expressing HepG2 cells. In kind it is functional, cell-based. Also noted: scale not given: the % may be the effect or the level left. The settings on record: hepg2, 100 µM.

Data set [2] addresses T1, ATP-binding cassette sub-family C member 4. Put plainly: TP_TRANSPORTER: inhibition of bimane-GS efflux in the presence of Benzbromarone at a concentration of 5uM in MRP4-expressing HepG2 cells. The format is functional, cell-based. Details: scale not given: the % may be the effect or the level left. To be noted: hepg2, 5 µM.
Data set [3] shares this target. Put plainly: TP_TRANSPORTER: efflux in MRP4-expressing HepG2 cells. The format is functional, cell-based.
Data set [4] shares this target. As to the kind of experiment: TP_TRANSPORTER: inhibition of bimane-GS efflux in the presence of Indomethacin at a concentration of 50uM in MRP4-expressing HepG2 cells. In kind it is functional, cell-based. Details: scale not given: the % may be the effect or the level left. To be noted: hepg2, 50 µM.
For data set [5], the target named is T2, MRP4 (ATP-binding cassette sub-family C member 4) (Homo sapiens, UniProt O15439).
T2 sequence (O15439 whole entry): T1 sequence (O15439 whole entry)
Put plainly: TP_TRANSPORTER: inhibition of bimane-GS efflux in the presence of Methotrexate at a concentration of 100uM in MRP4-expressing HepG2 cells. Details: scale not given: the % may be the effect or the level left. The format is functional, cell-based. The settings on record: probe bimane-GS, read-out: Activity.

Data set [6] concerns the target T1, ATP-binding cassette sub-family C member 4. Put plainly: TP_TRANSPORTER: inhibition of E217betaG uptake in membrane vesicles from MRP4-expressing Sf9 cells. The format is functional, cell membranes, Membrane vesicle.
Data set [7] concerns the target T2, MRP4 (ATP-binding cassette sub-family C member 4). Put plainly: TP_TRANSPORTER: inhibition of bimane-GS efflux in the presence of 6-thioguanine at a concentration of 100uM in MRP4-expressing HepG2 cells. The format is functional, cell-based. Details: scale not given: the % may be the effect or the level left. The settings on record: probe bimane-GS, read-out: Activity.

Structures are written as SMILES.

Regarding `NC(CCC(=O)NC(CSc1ccc([N+](=O)[O-])cc1[N+](=O)[O-])C(=O)NCC(=O)O)C(=O)O.O=[N+]([O-])c1ccc(Cl)c([N+](=O)[O-])c1` (configuration not stated), the Activity in data set [1] amounted to 27%. As to `CCc1oc2ccccc2c1C(=O)c1cc(Br)c(O)c(Br)c1` [BENZBROMARONE], the Activity in data set [2] is reported as 60%.

In the case of `Cc1c(C)n2c(CSC[C@H](NC(=O)CC[C@H](N)C(=O)O)C(=O)CNC(=O)O)c(C)c(=O)n2c1=O` [Bimane-glutathione], the Activity entry in data set [3] was “substrate []”.

As for `COc1ccc2c(c1)c(CC(=O)O)c(C)n2C(=O)c1ccc(Cl)cc1` [INDOMETHACIN], the Activity in data set [4] came out at 74%. For the compound `CN(Cc1cnc2nc(N)nc(N)c2n1)c1ccc(C(=O)N[C@@H](CCC(=O)O)C(=O)O)cc1` [METHOTREXATE], in data set [5], the activity at 100 µM was 53%. `C[C@]12CC[C@H](OS(=O)(=O)O)CC1=CC[C@@H]1[C@@H]2CC[C@]2(C)C(=O)CC[C@@H]12` [PRASTERONE SULFURIC ACID] registered an IC50 in data set [6] of 3 µM. On to `Nc1nc2nc[nH]c2c(=S)[nH]1` [THIOGUANINE], for which the activity at 100 µM in data set [7] came to 53%.
